Activity calls are given as the source filed them. The calls are words filed in the database; no cut-off is given here.
How the values were obtained:
J774.A1 [1] = assay: Anti-inflammatory activity in mouse J774.A1 cells assessed as inhibition of LPS-induced IL-6 production at 10 uM pre-stimulated with LPS for 24 hrs followed by compound addition and measured after 0.5 hrs by ELISA analysis relative to control; format: functional
J774.A1 [2] = assay: Anti-inflammatory activity in mouse J774.A1 cells assessed as inhibition of LPS-induced TNF-alpha production at 10 uM pre-stimulated with LPS for 24 hrs followed by compound addition and measured after 0.5 hrs by ELISA analysis relative to control; format: functional
J774.A1 [3] = assay: Anti-inflammatory activity in mouse J774.A1 cells assessed as inhibition of LPS-induced IL-6 production pre-stimulated with LPS for 24 hrs followed by compound addition and measured after 0.5 hrs by ELISA analysis; format: functional, cell-based
J774.A1 [4] = assay: Anti-inflammatory activity in mouse J774.A1 cells assessed as inhibition of LPS-induced TNF-alpha production pre-stimulated with LPS for 24 hrs followed by compound addition and measured after 0.5 hrs by ELISA analysis; format: functional, cell-based
J774.A1 [5] = assay: Cytotoxicity against mouse J774.A1 cells assessed as reduction in cell survival incubated for 24 hrs by MTT assay; format: toxicity, cell-based; details: j774.a1, 24 h
[6] = biological target: T1, Myeloid differentiation primary response protein MyD88 (Homo sapiens, UniProt Q99836); assay: Binding affinity to human MyD88 TIR domain by SPR analysis; details: dose 1.19-5.94 10^-5M
T1 sequence (Q99836 whole entry, the tested form may be a part): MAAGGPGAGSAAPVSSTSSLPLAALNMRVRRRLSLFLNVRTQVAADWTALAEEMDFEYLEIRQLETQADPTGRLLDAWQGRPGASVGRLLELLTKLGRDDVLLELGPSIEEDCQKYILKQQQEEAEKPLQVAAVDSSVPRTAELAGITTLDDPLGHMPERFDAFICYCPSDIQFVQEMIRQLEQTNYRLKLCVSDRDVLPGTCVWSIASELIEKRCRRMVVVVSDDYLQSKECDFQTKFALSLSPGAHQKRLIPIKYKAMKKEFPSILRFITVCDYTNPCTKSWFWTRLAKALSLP

[7] = biological target: T1, Myeloid differentiation primary response protein MyD88; assay: Binding affinity to human MyD88 TIR domain assessed as equilibrium dissociation constant by SPR analysis
J774.A1 [8] = assay: Anti-inflammatory activity in mouse J774.A1 cells assessed as suppression of LPS-induced IL-6 production by ELISA analysis; format: functional, cell-based

Row | Compound | inhibition at 10 µM (J774.A1 [1]) | inhibition at 10 µM (J774.A1 [2]) | also measured
1 | COCCN1CCN(c2ccc(S(=O)(=O)Nc3ccccc3)cc2[N+](=O)[O-])CC1 | 60.3% | 16.9% | 
2 | COCCN1CCN(c2ccc(S(=O)(=O)Nc3ccc(OC)nc3)cc2[N+](=O)[O-])CC1 | 47.3% | 1.16% | 
3 | CC(=O)N1CCN(Cc2ccc3c(=O)[nH]c(-c4ccccc4)nc3c2)CC1 | 26% |  | inhibition (J774.A1 [2]): inactive
4 | COCCN1CCN(c2ccc(S(=O)(=O)NCc3ccccn3)cc2[N+](=O)[O-])CC1 | 50.4% | 11.8% | 
5 | O=c1nc(-c2ccc(CN3CCN(CCO)CC3)cc2)cc(-c2ccccc2)[nH]1 | 18.2% | 17.9% | 
6 | O=[N+]([O-])c1cc(S(=O)(=O)Nc2ccccc2)ccc1N1CCN(CCO)CC1 | 55.6% | 7.89% | 
7 | O=c1nc(-c2ccc(CN3CCN(CCOCCO)CC3)cc2)cc(-c2ccccc2)[nH]1 | 19.3% | 14.2% | 
8 | O=c1[nH]c(-c2ccccc2)nc2cc(CN3CCN(c4ccc([N+](=O)[O-])cc4)CC3)ccc12 |  |  | inhibition (J774.A1 [1]): inactive; inhibition (J774.A1 [2]): inactive
9 | O=c1nc(-c2ccc(CN3CCN(CCOCCO)CC3)cc2)cc(-c2ccc(Br)cc2)[nH]1 | 58.4% | 22.6% | 
10 | COCCN1CCN(Cc2ccc(-c3cc(-c4ccccc4)[nH]c(=O)n3)cc2)CC1 |  | 25.6% | inhibition (J774.A1 [1]): inactive
11 | O=C(NCc1ccccn1)c1ccc(N2CCN(Cc3ccc([N+](=O)[O-])cc3)CC2)c([N+](=O)[O-])c1 | 57.6% | 37% | 
12 | O=C(Nc1ccccc1)c1ccc(N2CCN(CCO)CC2)c([N+](=O)[O-])c1 | 47.5% | 1.01% | 
13 | COCCN1CCN(Cc2ccc(-c3nc4ccccc4c(=O)[nH]3)cc2)CC1 | 34% | 22.6% | 
14 | COc1ccc(-c2cc(-c3ccc(CN4CCN(CCOCCO)CC4)cc3)nc(=O)[nH]2)cc1 | 17.1% | 27.2% | 
15 | O=c1nc(-c2ccc(CN3CCN(CCO)CC3)cc2)cc(-c2ccc(Br)cc2)[nH]1 | 7.52% | 29.6% | 
16 | COCCN1CCN(c2ccc(C(=O)Nc3ccccc3)cc2[N+](=O)[O-])CC1 | 47.8% | 26.9% | 
17 | O=c1nc(-c2ccc(CNc3nc4ccccc4s3)cc2)cc(-c2ccccc2)[nH]1 | 79.5% | 53.3% | IC50 (J774.A1 [3]): 0.53 µM; IC50 (J774.A1 [4]): 17.7 µM; Activity (J774.A1 [5]): Non-Toxic; Activity [6]: inactive
18 | CCCCCNCc1ccc(-c2cc(-c3ccccc3)[nH]c(=O)n2)cc1 | 17.9% | 16.1% | 
19 | COc1ccc(NS(=O)(=O)c2ccc(N3CCN(Cc4ccccc4)CC3)c([N+](=O)[O-])c2)cn1 | 55.1% | 27.7% | 
20 | O=C(Nc1ccccc1)c1ccc(N2CCN(Cc3ccc([N+](=O)[O-])cc3)CC2)c([N+](=O)[O-])c1 |  |  | inhibition (J774.A1 [1]): inactive; inhibition (J774.A1 [2]): inactive
21 | O=c1[nH]c(-c2ccc(CN3CCN(CCO)CC3)cc2)nc2ccccc12 | 57.1% |  | inhibition (J774.A1 [2]): inactive
22 | O=C(Nc1cccc2ccccc12)c1ccc(N2CCN(Cc3cccc([N+](=O)[O-])c3)CC2)c([N+](=O)[O-])c1 | 62.2% | 39.8% | 
23 | COc1ccc(-c2cc(-c3ccc(CN4CCN(c5ccc([N+](=O)[O-])cc5)CC4)cc3)nc(=O)[nH]2)cc1 | 35% | 38.7% | 

Row | Compound | inhibition at 10 µM (J774.A1 [1]) | inhibition at 10 µM (J774.A1 [2]) | also measured
24 | COCCN1CCN(Cc2ccc3c(=O)[nH]c(-c4ccccc4)nc3c2)CC1 | 29.2% |  | inhibition (J774.A1 [2]): inactive
25 | O=c1[nH]c(-c2ccc(CN3CCN(c4ccc([N+](=O)[O-])cc4)CC3)cc2)nc2ccccc12 | 44.1% |  | inhibition (J774.A1 [2]): inactive
26 | CC(=O)N1CCN(Cc2ccc(-c3nc4ccccc4c(=O)[nH]3)cc2)CC1 | 53.7% | 11.9% | 
27 | COc1ccc(CN2CCN(c3ccc(S(=O)(=O)Nc4ccc(OC)nc4)cc3[N+](=O)[O-])CC2)cc1 | 63.5% | 27.9% | 
28 | O=c1nc(-c2ccc(CN3CCN(c4ccc([N+](=O)[O-])cc4)CC3)cc2)cc(-c2ccccc2)[nH]1 | 15.7% | 50.6% | 
29 | O=[N+]([O-])c1cc(S(=O)(=O)NCc2ccccn2)ccc1N1CCN(CCO)CC1 | 37.8% | 6.63% | 
30 | COc1ccc(NS(=O)(=O)c2ccc(N3CCN(c4ncccn4)CC3)c([N+](=O)[O-])c2)cn1 | 45% | 22.3% | 
31 | COc1ccc(NS(=O)(=O)c2ccc(N3CCN(CCO)CC3)c([N+](=O)[O-])c2)cn1 | 22.2% |  | inhibition (J774.A1 [2]): inactive
32 | O=c1[nH]c(-c2ccccc2)nc2cc(CN3CCN(CCOCCO)CC3)ccc12 | 24.1% |  | inhibition (J774.A1 [2]): inactive
33 | COCCN1CCN(Cc2ccc(-c3cc(-c4ccc(Br)cc4)[nH]c(=O)n3)cc2)CC1 | 46.1% | 41.1% | 
34 | COc1ccc(-c2cc(-c3ccc(CN4CCN(CCO)CC4)cc3)nc(=O)[nH]2)cc1 | 8.43% | 33.7% | 
35 | COc1ccc(NS(=O)(=O)c2ccc(N3CCN(c4cnc(NC(C)=O)s4)CC3)c([N+](=O)[O-])c2)cn1 | 39.9% | 12.2% | 
36 | O=C(Nc1ccccc1)c1ccc(N2CCN(c3ccc([N+](=O)[O-])cc3)CC2)c([N+](=O)[O-])c1 | 14.9% |  | inhibition (J774.A1 [2]): inactive
37 | CC(=O)N1CCN(Cc2ccc(-c3cc(-c4ccc(Br)cc4)[nH]c(=O)n3)cc2)CC1 |  |  | inhibition (J774.A1 [1]): inactive; inhibition (J774.A1 [2]): inactive
38 | CCCCCNCc1ccc(-c2cc(-c3ccc(OC)cc3)[nH]c(=O)n2)cc1 | 35.3% | 24.1% | 
39 | O=C(NCc1ccccn1)c1ccc(N2CCN(Cc3cccc([N+](=O)[O-])c3)CC2)c([N+](=O)[O-])c1 | 33.1% | 27% | 
40 | O=c1[nH]c(-c2ccccc2)nc2cc(CN3CCN(CCO)CC3)ccc12 | 46% |  | inhibition (J774.A1 [2]): inactive
41 | O=C(NCc1ccccn1)c1ccc(N2CCN(Cc3ccccc3)CC2)c([N+](=O)[O-])c1 | 36.4% | 35.4% | 
42 | COCCN1CCN(Cc2ccc(-c3cc(-c4ccc(OC)cc4)[nH]c(=O)n3)cc2)CC1 | 14.8% | 40.8% | 
43 | O=[N+]([O-])c1cccc(CN2CCN(c3ccc(S(=O)(=O)Nc4ccccc4)cc3[N+](=O)[O-])CC2)c1 | 71.2% | 33.9% | 
44 | COc1ccc(NS(=O)(=O)c2ccc(N3CCN(Cc4ccc([N+](=O)[O-])cc4)CC3)c([N+](=O)[O-])c2)cn1 | 71.8% | 37.9% | IC50 (J774.A1 [3]): 3.4 µM; IC50 (J774.A1 [4]): 14.1 µM
45 | O=c1cc(-c2ccncc2)nc(-c2ccc(CN3CCN(CCO)CC3)cc2)[nH]1 | 33.5% | 8.59% | Kd [7]: 795 µM; Activity (J774.A1 [8]): Active
46 | O=C(Nc1ccccc1)c1ccc(N2CCN(Cc3cccc([N+](=O)[O-])c3)CC2)c([N+](=O)[O-])c1 |  |  | inhibition (J774.A1 [1]): inactive; inhibition (J774.A1 [2]): inactive

— ChEMBL document CHEMBL5338758, “Design, Synthesis, and Bioevaluation of Novel MyD88 Inhibitor c17 against Acute Lung Injury Derived from the Virtual Screen” (J Med Chem, 2023)
